Measurements: patent US12673975B2, “Cyclic peptide, cell scaffold material, cell separating material, and medium” (FUJIFILM Corporation, priority 2019, dated 2026)
Where two headings read alike, the source gives them in different places. Starred links: 1 amine or outer side, 2 acyl side, 3 side chain; linkers in the order of their positions; H or OH if unused. Positions of bridges follow the written chain, without caps; N, C: chain ends. Non-standard residues stand in square brackets, D forms with d. Residues, ends and D or L forms follow the SMILES beside them. hCys = N[C@@H](CCS)C(=O)O; Dab = NCC[C@H](N)C(=O)O; Dap = NC[C@H](N)C(=O)O; X1 = O=C(C[*:2])[*:1]; X2 = O=C(C[*:1])[*:2]

Experiments:
human integrin αvβ5 = human integrin αvβ5 (Homo sapiens, UniProt P06756+P18084); assay: Evaluation of integrin binding property (surface plasmon resonance, Biacore 3000, immobilized cyclic peptide)
Sequence of human integrin αvβ5 (P06756 31-1048): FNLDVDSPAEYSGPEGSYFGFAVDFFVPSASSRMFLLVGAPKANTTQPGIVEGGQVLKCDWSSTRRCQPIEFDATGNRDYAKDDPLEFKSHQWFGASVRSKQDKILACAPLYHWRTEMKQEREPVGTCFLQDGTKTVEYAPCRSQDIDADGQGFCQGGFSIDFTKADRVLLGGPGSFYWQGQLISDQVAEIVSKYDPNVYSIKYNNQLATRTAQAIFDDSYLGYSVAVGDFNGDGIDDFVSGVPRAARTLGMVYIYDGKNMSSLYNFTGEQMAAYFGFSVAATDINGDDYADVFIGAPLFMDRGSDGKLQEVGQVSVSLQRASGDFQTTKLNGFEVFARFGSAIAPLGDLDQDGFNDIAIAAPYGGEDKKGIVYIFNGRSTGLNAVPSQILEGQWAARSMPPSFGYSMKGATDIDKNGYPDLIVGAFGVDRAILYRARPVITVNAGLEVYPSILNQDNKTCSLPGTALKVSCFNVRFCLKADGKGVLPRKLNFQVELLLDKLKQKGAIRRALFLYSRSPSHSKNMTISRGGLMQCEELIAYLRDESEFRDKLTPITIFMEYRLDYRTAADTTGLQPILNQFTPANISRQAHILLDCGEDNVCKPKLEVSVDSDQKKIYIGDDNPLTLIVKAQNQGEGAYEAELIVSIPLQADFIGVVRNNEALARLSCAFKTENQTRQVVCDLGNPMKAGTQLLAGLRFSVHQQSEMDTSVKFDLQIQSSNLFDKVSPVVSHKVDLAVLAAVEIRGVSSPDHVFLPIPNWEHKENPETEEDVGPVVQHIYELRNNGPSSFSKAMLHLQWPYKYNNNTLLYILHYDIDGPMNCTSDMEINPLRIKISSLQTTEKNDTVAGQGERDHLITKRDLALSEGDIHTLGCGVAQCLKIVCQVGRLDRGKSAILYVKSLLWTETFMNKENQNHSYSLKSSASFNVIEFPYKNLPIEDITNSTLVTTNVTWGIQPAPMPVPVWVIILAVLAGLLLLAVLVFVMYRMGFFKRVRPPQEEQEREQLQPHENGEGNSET
Sequence of human integrin αvβ5 (P18084 24-799): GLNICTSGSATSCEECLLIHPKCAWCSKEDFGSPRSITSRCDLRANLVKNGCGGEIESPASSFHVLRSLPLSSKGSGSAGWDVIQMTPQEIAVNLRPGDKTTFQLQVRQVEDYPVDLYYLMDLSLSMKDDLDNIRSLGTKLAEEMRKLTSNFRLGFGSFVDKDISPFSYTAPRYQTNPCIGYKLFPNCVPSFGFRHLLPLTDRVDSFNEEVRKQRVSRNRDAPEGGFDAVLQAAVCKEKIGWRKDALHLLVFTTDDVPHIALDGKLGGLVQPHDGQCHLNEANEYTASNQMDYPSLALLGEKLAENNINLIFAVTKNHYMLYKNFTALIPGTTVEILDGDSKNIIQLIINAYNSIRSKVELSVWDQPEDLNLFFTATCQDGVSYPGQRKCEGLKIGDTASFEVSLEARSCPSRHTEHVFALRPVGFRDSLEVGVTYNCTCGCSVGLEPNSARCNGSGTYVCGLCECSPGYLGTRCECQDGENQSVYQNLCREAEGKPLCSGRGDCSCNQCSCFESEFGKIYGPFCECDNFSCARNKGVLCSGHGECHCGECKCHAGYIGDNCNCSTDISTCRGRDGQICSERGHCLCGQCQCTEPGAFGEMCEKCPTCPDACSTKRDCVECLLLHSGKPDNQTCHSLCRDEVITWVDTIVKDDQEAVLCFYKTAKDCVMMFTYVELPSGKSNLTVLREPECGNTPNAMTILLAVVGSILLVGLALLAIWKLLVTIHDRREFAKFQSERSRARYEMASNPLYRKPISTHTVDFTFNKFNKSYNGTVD
Outline: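 SPR with cyclic peptide amine-coupled via EDC/NHS to a CM5 chip, blank channel as reference. Integrin αvβ5 at 30, 100, 300 and 1,000 nM injected 10 min at 25 °C in HEPES buffer pH 7.4 with 5 mM MgCl2, 30 min buffer flow, EDTA regeneration; Kd from reference-subtracted signals, graded by category.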

[1] = Evaluation of molecule stability (alkali treatment, residual rate by LC/MS); assay type: physicochemical; conditions: for Stability (molecule stability, residual rate of the cyclic peptide rank): alkali treatment, residual rate by LC/MS; for Performance evaluation: Stability (residual rate of cyclic peptide after alkali treatment): 500 μM peptide aqueous solution plus equivalent of 1 M sodium hydroxide, 15° C., 3 hours, LC/MS peak area
Outline: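 500 μM aqueous cyclic peptide mixed with an equal volume of 1 M NaOH and held 3 h at 15 °C. Residual rate is total LC/MS peak area after treatment relative to untreated (100%), using a C18 column, pH 3 ammonium formate/acetonitrile gradient, 45 °C, ESI±.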

[2] = surface plasmon resonance, immobilized cyclic peptide, human integrin αvβ5, read-out: Binding activity (integrin binding property, dissociation constant rank)
[3] = SPR, 25° C., HEPES buffer with 5 mM magnesium chloride, integrin 30-1,000 nM, read-out: Performance evaluation: Binding activity (dissociation constant between the cyclic peptide and human integrin αvβ5)

Row | Kd (human integrin αvβ5; [2]) [µM] | Kd (human integrin αvβ5; [3]) [µM] | SMILES | Stability (molecule stability, residual rate of the cyclic peptide rank) [1] | Performance evaluation: Stability (residual rate of cyclic peptide after alkali treatment) [1]
1 | < 0.05 | – | C[C@@H]1NC(=O)[C@H](Cc2ccccc2)NC(=O)[C@H]([C@@H](C)O)NC(=O)[C@H](CC(=O)O)NC(=O)CNC(=O)[C@H](CCCNC(=N)N)NC(=O)[C@@H]2CCCN2C(=O)[C@H](Cc2ccc(O)cc2)NC(=O)[C@@H](NC(=O)[C@H](CCCCN)NC(=O)[C@H](CCCCN)NC(=O)[C@@H](N)CCCCN)CCSCC(=O)NCC[C@@H](C(=O)O)NC1=O [Cyclic peptide 148, KKK-(Hcy)-YPRGDTFA(Dab(acetyl))] (H-KKK[hCys]YPRGDTFA[Dab]-OH; linker 4-13 via X2) | A (The residual rate of the cyclic peptide is 70% or more.) | –
2 | < 0.05 | – | C[C@H](NC(=O)[C@@H]1CCNC(=O)CSCC[C@H](NC(=O)[C@H](CCCCN)NC(=O)[C@H](CCCCN)NC(=O)[C@@H](N)CCCCN)C(=O)N[C@@H]([C@@H](C)O)C(=O)N2CCC[C@H]2C(=O)N[C@@H](CCCNC(=N)N)C(=O)NCC(=O)N[C@@H](CC(=O)O)C(=O)N[C@@H]([C@@H](C)O)C(=O)N[C@@H](Cc2ccccc2)C(=O)N[C@@H](C)C(=O)N1)C(=O)O [Cyclic peptide 159, KKK-(Hcy)-TPRGDTFA(Dab(acetyl))A] (H-KKK[hCys]TPRGDTFA[Dab]A-OH; linker 4-13 via X2) | A (The residual rate of the cyclic peptide is 70% or more.) | –
3 | – | 0.05 to 0.1 | CC[C@H](C)[C@@H]1NC(=O)[C@H](C)NC(=O)[C@@H](NC(=O)[C@H](CCCCN)NC(=O)[C@H](CCCCN)NC(=O)[C@@H](N)CCCCN)CCSCC(=O)NCC[C@@H](C(=O)N[C@@H](C)C(=O)O)NC(=O)[C@H](C)NC(=O)[C@H](CCCNC(=N)N)NC(=O)[C@H](Cc2ccccc2)NC(=O)[C@H](CC(N)=O)NC(=O)[C@H](CC(=O)O)NC(=O)CNC(=O)[C@H](CCCNC(=N)N)NC(=O)[C@@H]2CCCN2C1=O [Cyclic peptide 17, KKK-(Hcy)-AIPRGDNFRA(Dab(acetyl))A] (H-KKK[hCys]AIPRGDNFRA[Dab]A-OH; linker 4-15 via X2) | – | A (The residual rate of the cyclic peptide is 70% or more.)
4 | < 0.05 | – | CC(C)[C@@H]1NC(=O)[C@@H](NC(=O)[C@H](CCCCN)NC(=O)[C@H](CCCCN)NC(=O)[C@@H](N)CCCCN)CCSCC(=O)NCC[C@@H](C(=O)O)NC(=O)[C@H](C)NC(=O)[C@H](Cc2ccccc2)NC(=O)[C@H]([C@@H](C)O)NC(=O)[C@H](CC(=O)O)NC(=O)CNC(=O)[C@H](CCCNC(=N)N)NC(=O)[C@@H]2CCCN2C1=O [Cyclic peptide 104, KKK-(Hcy)-VPRGDTFA(Dab(acetyl))] (H-KKK[hCys]VPRGDTFA[Dab]-OH; linker 4-13 via X2) | A (The residual rate of the cyclic peptide is 70% or more.) | –
5 | – | < 0.05 | CC[C@H](C)[C@@H]1NC(=O)[C@@H](NC(=O)[C@H](CCCCN)NC(=O)[C@H](CCCCN)NC(=O)[C@@H](N)CCCCN)CCSCC(=O)NCC[C@@H](C(=O)O)NC(=O)[C@H](CCCNC(=N)N)NC(=O)[C@H](Cc2ccccc2)NC(=O)[C@H]([C@@H](C)O)NC(=O)[C@H](CC(=O)O)NC(=O)CNC(=O)[C@H](CCCNC(=N)N)NC(=O)[C@@H]2CCCN2C1=O [Cyclic peptide 61, KKK-(Hcy)-IPRGDTFR(Dab(acetyl))] (H-KKK[hCys]IPRGDTFR[Dab]-OH; linker 4-13 via X2) | – | A (The residual rate of the cyclic peptide is 70% or more.)
6 | – | 0.05 to 0.1 | CC[C@H](C)[C@@H]1NC(=O)[C@@H](NC(=O)[C@H](CCCCN)NC(=O)[C@H](CCCCN)NC(=O)[C@@H](N)CCCCN)CCSCC(=O)NCC[C@@H](C(=O)O)NC(=O)[C@H](Cc2ccccc2)NC(=O)[C@H](C(C)C)NC(=O)[C@H](CC(=O)O)NC(=O)CNC(=O)[C@H](CCCNC(=N)N)NC(=O)[C@@H]2CCCN2C1=O [Cyclic peptide 65, KKK-(Hcy)-IPRGDVF(Dab(acetyl))] (H-KKK[hCys]IPRGDVF[Dab]-OH; linker 4-12 via X2) | – | A (The residual rate of the cyclic peptide is 70% or more.)
7 | < 0.05 | – | CC(C)C[C@@H]1NC(=O)[C@@H](NC(=O)[C@H](CCCCN)NC(=O)[C@H](CCCCN)NC(=O)[C@@H](N)CCCCN)CCSCC(=O)NCC[C@@H](C(=O)O)NC(=O)[C@H](C)NC(=O)[C@H](Cc2ccccc2)NC(=O)[C@H]([C@@H](C)O)NC(=O)[C@H](CC(=O)O)NC(=O)CNC(=O)[C@H](CCCNC(=N)N)NC(=O)[C@@H]2CCCN2C1=O [Cyclic peptide 146, KKK-(Hcy)-LPRGDTFA(Dab(acetyl))] (H-KKK[hCys]LPRGDTFA[Dab]-OH; linker 4-13 via X2) | A (The residual rate of the cyclic peptide is 70% or more.) | –
8 | < 0.05 | – | CC(C)[C@@H]1NC(=O)[C@@H](NC(=O)[C@H](CCCCN)NC(=O)[C@H](CCCCN)NC(=O)[C@@H](N)CCCCN)CCSCC(=O)NCC[C@@H](C(=O)O)NC(=O)[C@H](C)NC(=O)[C@H](Cc2ccccc2)NC(=O)[C@H]([C@@H](C)O)NC(=O)[C@H](CC(=O)O)NC(=O)CNC(=O)[C@H](CCCNC(=N)N)NC(=O)[C@H](CO)NC1=O [Cyclic peptide 149, KKK-(Hcy)-VSRGDTFA(Dab(acetyl))] (H-KKK[hCys]VSRGDTFA[Dab]-OH; linker 4-13 via X2) | A (The residual rate of the cyclic peptide is 70% or more.) | –
9 | – | < 0.05 | CC[C@H](C)[C@@H]1NC(=O)[C@@H](NC(=O)[C@H](CCCCN)NC(=O)[C@H](CCCCN)NC(=O)[C@@H](N)CCCCN)CCSCC(=O)NCC[C@@H](C(=O)O)NC(=O)[C@H](C)NC(=O)[C@H](Cc2ccccc2)NC(=O)[C@H]([C@@H](C)O)NC(=O)[C@H](CC(=O)O)NC(=O)CNC(=O)[C@H](CCCNC(=N)N)NC(=O)[C@@H]2CCCN2C1=O [Cyclic peptide 62, KKK-(Hcy)-IPRGDTFA(Dab(acetyl))] (H-KKK[hCys]IPRGDTFA[Dab]-OH; linker 4-13 via X2) | – | A (The residual rate of the cyclic peptide is 70% or more.)
10 | – | < 0.05 | CC(C)[C@@H]1NC(=O)[C@@H](NC(=O)[C@H](C)NC(=O)[C@H](CCCCN)NC(=O)[C@H](CCCCN)NC(=O)[C@@H](N)CCCCN)CCSCC(=O)NCC[C@@H](C(=O)N[C@@H](C)C(=O)O)NC(=O)[C@H](C)NC(=O)[C@H](Cc2ccccc2)NC(=O)[C@H](CO)NC(=O)[C@H](CC(=O)O)NC(=O)CNC(=O)[C@H](CCCNC(=N)N)NC(=O)[C@@H]2CCCN2C1=O [Cyclic peptide 96, KKKA-(Hcy)-VPRGDSFA(Dab(acetyl))A] (H-KKKA[hCys]VPRGDSFA[Dab]A-OH; linker 5-14 via X2) | – | A (The residual rate of the cyclic peptide is 70% or more.)
11 | < 0.05 | – | CC(C)[C@@H]1NC(=O)[C@@H](NC(=O)[C@H](CCCCN)NC(=O)[C@H](CCCCN)NC(=O)[C@@H](N)CCCCN)CCNC(=O)CSC[C@@H](C(=O)O)NC(=O)[C@H](C)NC(=O)[C@H](Cc2ccccc2)NC(=O)[C@H]([C@@H](C)O)NC(=O)[C@H](CC(=O)O)NC(=O)CNC(=O)[C@H](CCCNC(=N)N)NC(=O)[C@@H]2CCCN2C1=O [Cyclic peptide 141, KKK(Dab(acetyl))VPRGDTFA(C)] (H-KKK[Dab]VPRGDTFAC-OH; linker 4-13 via X1) | C (The residual rate of the cyclic peptide is 30% or more and less than 50%.) | –
12 | – | < 0.05 | CC(C)[C@@H]1NC(=O)[C@H](CC(=O)O)NC(=O)CNC(=O)[C@H](CCCNC(=N)N)NC(=O)[C@@H]2CCCN2C(=O)[C@H](C(C)C)NC(=O)[C@@H](NC(=O)[C@H](CCCCN)NC(=O)[C@H](CCCCN)NC(=O)[C@@H](N)CCCCN)CCSCC(=O)NCC[C@@H](C(=O)O)NC(=O)[C@H](Cc2ccccc2)NC1=O [Cyclic peptide 66, KKK-(Hcy)-VPRGDVF(Dab(acetyl))] (H-KKK[hCys]VPRGDVF[Dab]-OH; linker 4-12 via X2) | – | A (The residual rate of the cyclic peptide is 70% or more.)
13 | < 0.05 | – | CC(C)[C@@H]1NC(=O)[C@@H](NC(=O)[C@H](CCCCN)NC(=O)[C@H](CCCCN)NC(=O)[C@@H](N)CCCCN)CCSCC(=O)NCC[C@@H](C(=O)O)NC(=O)CNC(=O)[C@H](Cc2ccccc2)NC(=O)[C@H]([C@@H](C)O)NC(=O)[C@H](CC(=O)O)NC(=O)CNC(=O)[C@H](CCCNC(=N)N)NC(=O)[C@@H]2CCCN2C1=O [Cyclic peptide 152, KKK-(Hcy)-VPRGDTFG(Dab(acetyl))] (H-KKK[hCys]VPRGDTFG[Dab]-OH; linker 4-13 via X2) | A (The residual rate of the cyclic peptide is 70% or more.) | –
14 | – | < 0.05 | C[C@H](NC(=O)[C@H](CCCCN)NC(=O)[C@H](CCCCN)NC(=O)[C@@H](N)CCCCN)C(=O)N[C@H]1CNC(=O)CSCC[C@@H](C(=O)N[C@@H](CC(=O)O)C(=O)O)NC(=O)[C@H](CCCNC(=N)N)NC(=O)[C@H](Cc2ccc(O)cc2)NC(=O)[C@H](CC(N)=O)NC(=O)[C@H](CC(=O)O)NC(=O)CNC(=O)[C@H](CCCNC(=N)N)NC(=O)[C@@H]2CCCN2C(=O)[C@H](CCC(=O)O)NC1=O [Cyclic peptide 48, KKKA(Dap(acetyl))EPRGDNYR-(Hcy)-D] (H-KKKA[Dap]EPRGDNYR[hCys]D-OH; linker 5-14 via X1) | – | B (The residual rate of the cyclic peptide is 50% or more and less than 70%.)
